Laboratory results: patent US20180310564A1, “Mesoionic Compound” (Nippon Kayaku Kabushiki Kaisha, priority 2015, published 2018)
Counter-ions that a name gives are not always drawn.

Legend:
Assay type in all cases: in vivo
[1] = test system: Cotton Aphid (Aphis gossypii); assay: Test (foliar spraying) for controlling cotton aphid; details: 120 h, 5 days after treatment; for mortality at 200 ppm: foliar spraying on cucumber leaf
Description: A cucumber leaf cut to a diameter of 3.5 cm was placed on cotton wool moistened with water. Two adult cotton aphids were released there for offspring for 24 hours and the adult insects were then removed. […] After air-drying, the sample with cotton wool was placed in a plastic cup, which was covered with a lid and kept in a chamber at a constant temperature of 25° C. for rearing.

[2] = test system: Brown Planthopper (Nilaparvata lugens); assay: Test (foliar dipping) for controlling brown planthopper; details: 120 h, rice seedlings dipped, 5 days after treatment; for mortality at 200 ppm: third instar larvae
Description: […] After air-drying, the rice seedlings held with urethane in a glass cylinder having an inner diameter of 4.5 cm and a length of 14 cm were set up in a plastic cup containing 40 mL of water. Larvae of brown planthoppers in the third instar larva were released there. The cylinder was covered with a lid of medicine paper and kept in a chamber at a constant temperature of 25° C. for rearing.

[3] = test system: Southern Yellow thrips (Thrips palmi); assay: Test (foliar spraying) for controlling southern yellow thrips; details: 3 days after treatment; for mortality at 200 ppm: 72 h, foliar spraying on cucumber leaf, first instar larvae; for Mortality of Thrips palmi (%): foliar spraying
Description: A cucumber leaf cut to a diameter of 1.5 cm was placed on cotton wool moistened with water. […] After air-drying, 5 larvae of southern yellow thrips in the first instar larva were released there. The sample with cotton wool was placed in a plastic cup, which was covered with a lid and kept in a chamber at a constant temperature of 25° C. for rearing.

[4] = test system: Brown Planthopper (Nilaparvata lugens); assay: Test (root dipping) for controlling brown planthopper; details: 5 days after treatment
Description: (§1) Ten sampled rice seedlings held with urethane in a glass cylinder having an inner diameter of 4.5 cm and a length of 14 cm were set up in a plastic cup containing 40 mL of chemical solution diluted to a desired concentration. After 2 days, 10 larvae of brown planthoppers in the third instar larva were released in the glass cylinder. The glass cylinder was covered with a lid of medicine paper and kept in a chamber at a constant temperature of 25° C. for rearing.

[5] = test system: Brown Planthopper (Nilaparvata lugens); assay: Residual effect test (field experiment) for brown planthopper
Description: The roots of five sampled rice seedlings were washed with water. Subsequently, 25 mg of the wettable powder prepared in accordance with Formulation Example 2 described above was wrapped in the roots. Each strain was made from the five seedlings. In outdoor artificial paddy fields made from wooden frames having a size of 60 cm by 90 cm, 10 strains were planted, respectively. The artificial paddy field was shielded by an insect screen with a mesh size of 1 mm, so that invasion of harmful insects from the outside was prevented. Into the test system, 40 to 100 adult brown planthoppers were released at fixed intervals so as to cause damage to the rice. On 16 to 51 days after the treatment, the numbers of surviving insects and dead insects were measured to calculate the density index. The density index was obtained from the following expression.

[6] = test system: Rice Leaf Beetle (Oulema oryzae); assay: Test (root dipping) for controlling rice leaf beetle; details: 1.6 ppm, root dipping of rice seedlings, late instar larvae released after 2 days, 4 days after treatment
Description: as §1, with “4” for “10”, “rice leaf beetle” for “brown planthoppers”, “late” for “third”

[7] = test system: Rice Stem Borer (Chilo suppressalis); assay: Test (pot test) for controlling rice stem borer; details: 14 days after treatment
Description: The roots of five sampled rice seedlings were washed with water. The wettable powder prepared in accordance with Formulation Example 2 described above was wrapped in the roots to be planted in a Wagner pot of 1/10000 a. After 4 days from the treatment, a total of […] of rice stem borer were released per strain and reared in a plastic greenhouse with a room temperature set at 25° C. On 14 days after the treatment, the ratio of browning stem of seedlings for each strain and the ratio to untreated ones were calculated. Double system.

[8] = test system: Inedorooimushi (Oulema oryzae); assay: Test (pot test) for controlling inedorooimushi; details: larvae released 20 days after treatment, 2 days after release
Description: The roots of five sampled rice seedlings were washed with water. The wettable powder prepared in accordance with Formulation Example 2 described above was wrapped in the roots to be planted in a Wagner pot of 1/10000 a. After 20 days from the treatment, 3 larvae of inedorooimushi in the late instar larva were released per strain and reared in a plastic greenhouse with a room temperature set at 25° C. On 2 days after the releasing of the insects, the mortality of the insect was calculated.

[9] = test system: Brown Winged Green Stink Bug (Plautia stali); assay: Test (greenhouse test) for controlling brown winged green stink bug; details: 100 ppm sprayed on apple fruit
Description: Using a commercially available hand spray, a chemical solution diluted to a concentration of 100 ppm was sprayed onto an apple fruit (cultivar: Fuji). After air-drying, the apple fruit was placed in a plastic cup, which was allowed to stand still for a specified number of […] in a plastic greenhouse with a room temperature set at 25° C. and with the natural light shining thereon. On 7 days after the treatment, 5 adult brown winged green stink bugs (without distinction between male and female) were released onto the treated fruit. On 4 days after the release of insects, the numbers of death and abnormality were observed and recorded. Triple system. Also, the fruit after examination was immersed in an acidic 0.5% fuchsine solution for 30 minutes, and then washed with water to measure the total number of sapping scars.

[10] = After 16 days, 25 mg wettable powder (Formulation Example 2) at roots per strain, outdoor artificial paddy field
[11] = After 23 days, 25 mg wettable powder at roots per strain, artificial paddy field
[12] = After 30 days, 25 mg wettable powder at roots per strain, artificial paddy field
[13] = After 37 days, 25 mg wettable powder at roots per strain, artificial paddy field
[14] = After 44 days, 25 mg wettable powder at roots per strain, artificial paddy field
[15] = After 51 days, 25 mg wettable powder at roots per strain, artificial paddy field
[16] = 5 adults released 7 days after treatment, triple system, 4 days after release

## Cc1cccc(-c2c([O-])[n+](CCCCCCCC#N)c3ccccn3c2=O)c1 [Comparative compound 1]
[1]
  mortality at 200 ppm: 0%

## Cc1cccc(-c2c([O-])[n+](CCCCCC#N)c3ccccn3c2=O)c1 [Comparative compound 2]
[1]; foliar spraying
  mortality at 50 ppm: 0%
[1]
  mortality at 200 ppm: 20%

## Cc1cccc(-c2c([O-])[n+](CCCCC#N)c3ccccn3c2=O)c1 [Comparative compound 3]
[1]; foliar spraying
  mortality at 12.5 ppm: 0%
  mortality at 50 ppm: 40%
[1]
  mortality at 200 ppm: 100%

## N#CCCC[n+]1c([O-])c(-c2cccc(C(F)(F)F)c2)c(=O)n2ccccc21 [Comparative compound 4]
[1]; foliar spraying
  mortality at 3.1 ppm: 0%
  mortality at 12.5 ppm: 75%

## N#CC[n+]1c([O-])c(-c2cccc(C(F)(F)F)c2)c(=O)n2ccccc21 [Comparative compound 5]
[1]; foliar spraying
  mortality at 3.1 ppm: 0%
  mortality at 12.5 ppm: 10%

## CC(C#N)C[n+]1c([O-])c(-c2cccc(C(F)(F)F)c2)c(=O)n2ccccc21 (stereo not shown) [Comparative compound 6]
[1]; foliar spraying
  mortality at 12.5 ppm: 50%
  mortality at 50 ppm: 100%

## CC(CC#N)[n+]1c([O-])c(-c2cccc(C(F)(F)F)c2)c(=O)n2ccccc21 (stereo not shown) [Comparative compound 7]
[1]
  mortality at 200 ppm: 0%

## N#CCC[n+]1c([O-])c(-c2ccccc2)c(=O)n2ccccc21 [Compound 1, 1-(2-cyanoethyl)-2-hydroxy-4-oxo-3-phenyl-4H-pyrido[1,2-a]pyrimidinium inner salt]
[1]
  mortality at 200 ppm: ≥ 80%
[2]; 0.012 ppm
  mortality at 0.012 ppm: 50%
[2]; 0.024 ppm
  mortality at 0.024 ppm: 60%
[2]; 0.049 ppm
  mortality at 0.049 ppm: 70%
[2]
  mortality at 200 ppm: ≥ 80%
[3]
  mortality at 200 ppm: ≥ 80%

## COc1cccc(-c2c([O-])[n+](CCC#N)c3ccccn3c2=O)c1 [Compound 18, 1-(2-cyanoethyl)-2-hydroxy-3-(3-methoxyphenyl)-4-oxo-4H-pyrido[1,2-a]pyrimidinium inner salt]
[1]
  mortality at 200 ppm: ≥ 80%
[2]
  mortality at 0.01 ppm: 10%
  mortality at 0.02 ppm: 20%
  mortality at 0.05 ppm: 100%
  mortality at 200 ppm: ≥ 80%
[3]; 3.1 ppm
  Mortality of Thrips palmi (%): 100%
[3]; 12.5 ppm
  Mortality of Thrips palmi (%): 100%
[3]; 50 ppm
  Mortality of Thrips palmi (%): 100%
[3]
  mortality at 200 ppm: ≥ 80%

## CCOc1cccc(-c2c([O-])[n+](CCC#N)c3ccccn3c2=O)c1 [Compound 21, 1-(2-cyanoethyl)-3-(3-ethoxyphenyl)-2-hydroxy-4-oxo-4H-pyrido[1,2-a]pyrimidinium inner salt]
[1]
  mortality at 200 ppm: ≥ 80%
[2]
  mortality at 0.01 ppm: 10%
  mortality at 0.02 ppm: 70%
  mortality at 0.05 ppm: 80%
  mortality at 200 ppm: ≥ 80%
[3]
  mortality at 200 ppm: ≥ 80%

## Cc1cccn2c(=O)c(-c3cc(Cl)cc(Cl)c3)c([O-])[n+](Cc3cnc(Cl)s3)c12 [Dicloromezotiaz]
[1]; foliar spraying
  mortality at 12.5 ppm: 0%
  mortality at 50 ppm: 90%
[1]
  mortality at 200 ppm: 100%
[2]
  mortality at 200 ppm: 0%
[3]
  mortality at 200 ppm: 0%
[4]; 200 ppm, root dipping of rice seedlings, larvae released after 2 days
  mortality at 200 ppm: 0%

## N#Cc1nn(-c2c(Cl)cc(C(F)(F)F)cc2Cl)c(N)c1[S+]([O-])C(F)(F)F (stereo not shown) [Fipronil, reference compound]
[5]; [10]
  Density index of Nilaparvata lugens: 0
[5]; [11]
  Density index of Nilaparvata lugens: 5.4
[5]; [12]
  Density index of Nilaparvata lugens: 56.2
[5]; [13]
  Density index of Nilaparvata lugens: 73.9
[5]; [14]
  Density index of Nilaparvata lugens: 105
[5]; [15]
  Density index of Nilaparvata lugens: 98.4

## O=c1c(-c2cccc(C(F)(F)F)c2)c([O-])[n+](Cc2cncnc2)c2ccccn12 [Triflumezopyrim, reference compound]
[1]; 0.20 ppm, foliar spraying
  mortality at 0.2 ppm: 0%
[1]; 0.39 ppm, foliar spraying
  mortality at 0.39 ppm: 60%
[1]; 0.78 ppm, foliar spraying
  mortality at 0.78 ppm: 85%
[2]; 0.1 ppm
  mortality at 0.1 ppm: 10%
[2]; 0.2 ppm
  mortality at 0.2 ppm: 70%
[3]; 12.5 ppm
  Mortality of Thrips palmi (%): 0%
[3]; 50 ppm
  Mortality of Thrips palmi (%): 60%
[3]
  mortality at 200 ppm: 100%
[4]; 120 h, 0.05 ppm, root dipping
  mortality at 0.05 ppm: 0%
[4]; 120 h, 0.1 ppm, root dipping
  mortality at 0.1 ppm: 70%
[4]; 120 h, 0.2 ppm, root dipping
  mortality at 0.2 ppm: 70%
[4]; 120 h, 0.4 ppm, root dipping
  mortality at 0.4 ppm: 70%
[4]; 120 h, 0.8 ppm, root dipping
  mortality at 0.8 ppm: 100%
[6]
  mortality at 1.6 ppm: 0%
[7]; 500 g/ha as wettable powder (Formulation Example 2) at rice roots, hatchlings released after 4 days
  Browning stem ratio (%): 40%
[7]; browning stem ratio relative to untreated, 500 g/ha
  Ratio to untreated (%): 49%
[8]; 125 g/ha
  mortality at 125 g/ha: 16.7%
[8]; 250 g/ha
  mortality at 250 g/ha: 50%
[8]; 500 g/ha as wettable powder at rice roots
  mortality at 500 g/ha: 66.7%
[5]; [10]
  Density index of Nilaparvata lugens: 2.5
[5]; [11]
  Density index of Nilaparvata lugens: 5.4
[5]; [12]
  Density index of Nilaparvata lugens: 45.1
[5]; [13]
  Density index of Nilaparvata lugens: 56.7
[5]; [14]
  Density index of Nilaparvata lugens: 63.9
[5]; [15]
  Density index of Nilaparvata lugens: 92.2
[9]; [16]
  Number of abnormal insects: 5
  Number of dead insects: 4
  Number of normal insects: 6
[9]; fruit stained with fuchsine after examination
  Total number of sheaths formed by stylet insertion: 10
[9]; insects released 7 days after treatment
  Proportion of abnormal insects and dead insects on 4 days after releasing insects (%): 60.0%
